In US20230398105A1, “TREATMENT REGIMENS FOR PARKINSON'S DISEASE” (BIAL - PORTELA & Cª, S.A., priority 2020, published 2023):

Tests used:
[1] = tested on: Parkinson's disease patients; assay: Pooled BIPARK-I and BIPARK-II post-hoc analysis: change from baseline in absolute off-time; type: in vivo, human; conditions: after 14-15 weeks
From the text: The term “absolute off-time” is the combined total daily of 30-minute periods spent in an “off” state. Conversely, the term “absolute on-time” is the combined total daily of 30-minute periods spent in an “on” state. Periods where the patient is asleep are excluded from either group.
The term “unpredictable motor fluctuations”, also known as “unpredictable on/off fluctuations” or “on/off phenomenon”, relates to the unpredictable re-emergence or worsening of symptoms at any time, such as severe troublesome dyskinesias, severe/unpredictable end-of-dose motor fluctuations, painful “off” dystonia and morning akinesia (Fabbri M. et al., Mov. Disord., 2018, 33, 1528-1539). Unpredictable motor fluctuations are unrelated to the timing of the next dose and may occur at any time during the day. […] Within the clinical trials analysed, unpredictable on/off fluctuations were defined as present if clinicians scored “NO” at the UPDRS item 36 (“Are “off” periods predictable?”), or “YES” in at least one of the following UPDRS items: 37 (“Are “off” periods unpredictable?”) and 38 (“Do “off” periods come on suddenly, within a few seconds?”).
(§1) The results of the two multi-centered double-blinded (DB) randomized placebo-controlled trials BIPARK-I (Ferreira et al., Lancet Neurol., 2016, 15, 154-65) and BIPARK-II (Lees et al., JAMA Neurol., 2017, 74, 197-206) were pooled together. Both clinical trials were performed to evaluate the efficacy and safety of opicapone in addition to levodopa-treated patients with moderate end-of-dose motor fluctuations. All patients had signs of end-of-dose deterioration for at least 4 weeks before screening, with a mean total awake off-time (state of akinesia or decreased mobility) of at least 1.5 hours, excluding morning akinesia. Eligible patients were randomized at baseline to the double-blind phase using a computer-generated scheme (administered by Cenduit, LLC) in a ratio of 1:1:1 to the addition of oral capsular opicapone, 25 mg/day or 50 mg/day, or matching placebo. The double-blind phase assessments occurred at 4-week intervals and the total duration of the double-blind phase could be 14 to 15 weeks. Full details of the inclusion and exclusion criteria and on study design are described in Ferreira et al., Lancet Neurol., 2016, 15, 154-65 and Lees et al., JAMA Neurol., 2017, 74, 197-206, which are incorporated herein by reference. Reductions in the daily dose (but not frequency) of levodopa were allowed between baseline and 3 to 4 weeks after baseline according to the clinical response but were not permitted thereafter.
(§2) Populations undergoing analysis included all randomized patients who took at least 1 dose of study medication and had at least 1 post-baseline off-time assessment. The post-hoc analysis described herein, analyzed Parkinson's disease patients with (“YES”) and without (“NO”) unpredictable on/off fluctuations.
(§3) The primary efficacy variable was the change from baseline in absolute off-time. As secondary end-point, the inventors analyzed the absolute on-time as well as the proportions of patients achieving at least a 1-hour reduction in absolute off-time and/or the proportions of patients achieving at least a 1-hour increase in absolute on-time at the end of the double-blind phase, defined as “responders”.
(§4) Changes from baseline were analysed using ANCOVA with treatment group included as fixed effect factor and the baseline scale score as a covariate. CMH-Test was used to assess differences between OPC dose levels and Placebo taking study into account as a factor.
(§5) Opicapone was synthesised as described in WO 2013/089573 and formulated into 25 or 50 mg capsules as described in WO 2010/114405. Study treatment (opicapone or matching placebo) was taken orally once daily in the evening at least 1 hour after the last daily dose of levodopa/DDCI (considered the bedtime dose).

[2] = tested on: Parkinson's disease patients; assay: Pooled BIPARK-I and BIPARK-II: OFF-time and ON-time responder rates (≥1 hour) at endpoint; type: in vivo, human
From the text: The term “responders” is defined as patients achieving at least a 1-hour reduction in absolute off-time and/or the proportions of patients achieving at least a 1-hour increase in absolute on-time at the end of the double-blind phase of the trial.
as §1, §2, §3, §4, §5

[3] = tested on: Parkinson's disease patients; assay: Pooled BIPARK-I and BIPARK-II: treatment-emergent adverse events in the safety set; type: in vivo, human
From the text: The term “treatment-emergent adverse events” is defined as any event not present before exposure to the study drug or any event already present that worsens in either intensity or frequency after first intake of study drug until 2 weeks after last intake of the study drug.
as §1, §5

[4] = tested on: Parkinson's disease patients; conditions: BIPARK-I; patients with end-of-dose motor fluctuations; cited from earlier work
[5] = 25 mg, NO: without unpredictable motor fluctuations
[6] = 25 mg, YES: with unpredictable motor fluctuations
[7] = 50 mg, NO: without unpredictable motor fluctuations
[8] = 50 mg, YES: with unpredictable motor fluctuations
[9] = 25 mg, NO: without unpredictable motor fluctuations, N = 143
[10] = 25 mg, YES: unpredictable motor fluctuations, N = 98
[11] = 50 mg, NO: without unpredictable motor fluctuations, N = 175
[12] = 50 mg, YES: unpredictable motor fluctuations, N = 87

## Cc1c(Cl)c(C)[n+]([O-])c(Cl)c1-c1noc(-c2cc(O)c(O)c([N+](=O)[O-])c2)n1 [opicapone, 2,5-dichloro-3-[5-(3,4-dihydroxy-5-nitrophenyl)-1,2,4-oxadiazol-3-yl]-4,6-dimethylpyridine 1-oxide]
[1]; 25 mg vs. placebo, NO: patients without unpredictable motor fluctuations
  Absolute off-time, change from baseline vs. placebo: -20.4 min
[1]; 25 mg vs. placebo, Total patients
  Absolute off-time, change from baseline vs. placebo: -40.7 min
[1]; 25 mg vs. placebo, YES: patients with unpredictable motor fluctuations
  Absolute off-time, change from baseline vs. placebo: -61 min
[1]; 25 mg, NO: patients without unpredictable motor fluctuations
  Absolute off-time, change from baseline to end-point: -73.6 min
[1]; 25 mg, Total patients
  Absolute off-time, change from baseline to end-point: -98.7 min
[1]; 25 mg, YES: patients with unpredictable motor fluctuations
  Absolute off-time, change from baseline to end-point: -123.8 min
[1]; 50 mg vs. placebo, Total patients
  Absolute off-time, change from baseline vs. placebo: -64 min
[1]; 50 mg, NO: patients without unpredictable motor fluctuations
  Absolute off-time, change from baseline to end-point: -104.7 min
[1]; 50 mg, Total patients
  Absolute off-time, change from baseline to end-point: -122 min
[1]; 50 mg, YES: patients with unpredictable motor fluctuations
  Absolute off-time, change from baseline to end-point: -139.3 min
[2]; [5]
  responders, off-time reduced (≥1 hour): 58.7%
  responders, on-time increased (≥1 hour): 53.8%
[2]; [6]
  responders, off-time reduced (≥1 hour): 65.3%
  responders, on-time increased (≥1 hour): 69.4%
[2]; [7]
  responders, off-time reduced (≥1 hour): 68.6%
  responders, on-time increased (≥1 hour): 61.7%
[2]; [8]
  responders, off-time reduced (≥1 hour): 65.5%
  responders, on-time increased (≥1 hour): 66.7%
[3]; [9]
  Incidence of Related Serious TEAEs: 0 number (%)
  Incidence of Serious TEAEs: 2 (0.8) number (%)
  Incidence of any TEAEs leading to Discontinuation: 7 (2.9) number (%)
  TEAE: Anxiety: 0 number (%)
  TEAE: Back pain: 4 (2.7) number (%)
  TEAE: Constipation: 9 (6.2) number (%)
  TEAE: Dizziness: 7 (4.8) number (%)
  TEAE: Dry mouth: 8 (5.5) number (%)
  TEAE: Dyskinesias: 14 (9.6) number (%)
  TEAE: Falls: 3 (2.1) number (%)
  TEAE: Headache: 6 (4.1) number (%)
  TEAE: Hypertension: 6 (4.1) number (%)
  TEAE: Insomnia: 11 (7.5) number (%)
  TEAE: Nausea: 5 (3.4) number (%)
  TEAE: Parkinson's disease: 4 (2.7) number (%)
  TEAE: Somnolence: 3 (2.1) number (%)
  TEAE: Urinary tract infection: 1 (0.7) number (%)
  TEAE: ↑CPK (Blood creatine phosphokinase): 4 (2.7) number (%)
[3]; [10]
  Incidence of Serious TEAEs: 3 (1.2) number (%)
  Incidence of any TEAEs leading to Discontinuation: 6 (2.5) number (%)
  TEAE: Anxiety: 5 (5.1) number (%)
  TEAE: Back pain: 1 (1.0) number (%)
  TEAE: Constipation: 3 (3.1) number (%)
  TEAE: Dizziness: 3 (3.1) number (%)
  TEAE: Dry mouth: 8 (8.2) number (%)
  TEAE: Dyskinesias: 25 (25.5) number (%)
  TEAE: Falls: 8 (8.2) number (%)
  TEAE: Headache: 2 (2.0) number (%)
  TEAE: Hypertension: 4 ( 4.1) number (%)
  TEAE: Insomnia: 6 (6.1) number (%)
  TEAE: Nausea: 6 (6.1) number (%)
  TEAE: Parkinson's disease: 7 (7.1) number (%)
  TEAE: Somnolence: 7 (7.1) number (%)
  TEAE: Urinary tract infection: 3 (3.1) number (%)
  TEAE: Weight decrease: 0 number (%)
  TEAE: ↑CPK (Blood creatine phosphokinase): 3 (3.1) number (%)
[3]; [11]
  Incidence of Serious TEAEs: 6 (2.3) number (%)
  Incidence of any TEAEs leading to Discontinuation: 13 (4.9) number (%)
  TEAE: Back pain: 1 (0.6) number (%)
  TEAE: Constipation: 10 (5.6) number (%)
  TEAE: Dizziness: 5 (2.8) number (%)
  TEAE: Dry mouth: 5 (2.8) number (%)
  TEAE: Dyskinesias: 35 (19.7) number (%)
  TEAE: Falls: 3 (1.7) number (%)
  TEAE: Headache: 7 (3.9) number (%)
  TEAE: Hypertension: 7 (3.9) number (%)
  TEAE: Insomnia: 6 (3.4) number (%)
  TEAE: Nausea: 6 (3.4) number (%)
  TEAE: Parkinson's disease: 5 (2.8) number (%)
  TEAE: Somnolence: 3 (1.7) number (%)
  TEAE: Urinary tract infection: 9 (5.1) number (%)
  TEAE: Weight decrease: 9 (5.1) number (%)
  TEAE: ↑CPK (Blood creatine phosphokinase): 12 (6.7) number (%)
[3]; [12]
  Incidence of Related Serious TEAEs: 1 (0.4) number (%)
  Incidence of Serious TEAEs: 7 (2.6) number (%)
  Incidence of any TEAEs leading to Discontinuation: 10 (3.8) number (%)
  TEAE: Anxiety: 3 (3.4) number (%)
  TEAE: Back pain: 2 (2.3) number (%)
  TEAE: Constipation: 7 (8.0) number (%)
  TEAE: Dizziness: 4 (4.6) number (%)
  TEAE: Dry mouth: 3 (3.4) number (%)
  TEAE: Dyskinesias: 19 (21.8) number (%)
  TEAE: Falls: 5 (5.7) number (%)
  TEAE: Headache: 3 (3.4) number (%)
  TEAE: Hypertension: 1 (1.1) number (%)
  TEAE: Insomnia: 3 (3.4) number (%)
  TEAE: Nausea: 2 (2.3) number (%)
  TEAE: Parkinson's disease: 1 (1.1) number (%)
  TEAE: Somnolence: 2 (2.3) number (%)
  TEAE: Urinary tract infection: 1 (1.1) number (%)
  TEAE: Weight decrease: 1.1 (0.4) number (%)
  TEAE: ↑CPK (Blood creatine phosphokinase): 1 (1.1) number (%)
[3]; patients with unpredictable motor fluctuations
  Safety in patients with unpredictable motor fluctuations: safe
[4]
  ability to reduce the time patients spent in the off state, vs. entacapone: non-inferior
  ability to reduce the time patients spent in the off state, vs. placebo combined with levodopa/DCCI: superior
